{"source": "ChEMBL document CHEMBL6121046", "about": "“Discovery of Novel Hydrazide-Based HDAC3 Inhibitors as Epigenetic Immunomodulators for Cancer Immunotherapy” (J Med Chem, 2025)", "key": {"[1]": {"system": "MC-38", "experiment": "Induction of mitochondrial membrane damage in mouse MC38 cells assessed as decrease in JC-1 aggregation by measuring red fluorescence at 1 uM measured after 48 hrs (reference value: 96.70%)", "type": "functional", "parameters": "scale not given: the % may be the effect or the level left"}, "[2]": {"experiment": "AUC (0 to t) in Sprague-Dawley rat at 20 mg/kg, iv measured upto 12 hrs by LC-MS/MS analysis", "type": "ADME, organism-based", "conditions": "in vivo"}, "[3]": {"experiment": "Toxicity in C57BL/6 mouse allografted with mouse MC38 cells assessed as pathological changes in liver at 50 mg/kg, po treated 5 days after cell inoculation 19 th day by hematoxylin and eosin analysis", "type": "organism-based", "conditions": "in vivo, 360 h, time 15 day"}, "[4]": {"experiment": "Clearance in Sprague-Dawley rat at 20 mg/kg, po measured upto 12 hrs by LC-MS/MS analysis", "type": "ADME, organism-based", "conditions": "in vivo"}, "[5]": {"system": "Mus musculus", "experiment": "Induction of PD-L1 expression in tumor in C57BL/6 mouse allografted with mouse MC38 cells at 50 mg/kg, po treated 5 days after cell inoculation 19 th day by immunofluorescence analysis", "type": "functional, organism-based", "conditions": "time 15.0 day"}, "[6]": {"system": "MC-38", "experiment": "Induction of ROS production in mouse MC38 cells assessed as increase in intracellular ROS level measured after 48 hrs by DCFH-DA/Brightfield - fluorescence imaging analysis", "type": "functional, cell-based"}, "[7]": {"experiment": "Clearance in Sprague-Dawley rat at 20 mg/kg, iv measured upto 12 hrs by LC-MS/MS analysis", "type": "ADME, organism-based", "conditions": "in vivo"}, "[8]": {"experiment": "Toxicity in C57BL/6 mouse allografted with mouse MC38 cells assessed as alanine amino transferase (ALT) level in serum at 50 mg/kg, po treated 5 days after cell inoculation 19 th day", "type": "organism-based", "conditions": "in vivo, 360 h, time 15 day"}, "[9]": {"system": "MC-38", "experiment": "Induction of mitochondrial membrane damage in mouse MC38 cells assessed as decrease in JC-1 aggregation by measuring red fluorescence at 2 uM measured after 48 hrs (reference value: 96.70%)", "type": "functional", "parameters": "scale not given: the % may be the effect or the level left"}, "[10]": {"experiment": "Acute toxicity in C57 mouse assessed as body weight change", "conditions": "in vivo"}, "[11]": {"system": "Mus musculus", "experiment": "Immunomodulatory effect in C57BL/6 mouse allografted mouse MC38 cells assessed as increase in tumor infiltrating lymphocytes by measuring increase in CD4+ T helper cells in tumor at 50 mg/kg, po treated 5 days after cell inoculation 19 th day by flow cytometry analysis (reference value: 2.57%)", "type": "functional", "conditions": "time 15 day"}, "[12]": {"experiment": "MRT (0 to t) in Sprague-Dawley rat at 20 mg/kg, iv measured upto 12 hrs by LC-MS/MS analysis", "type": "ADME, organism-based", "conditions": "in vivo"}, "[13]": {"system": "MC-38", "experiment": "Induction of PD-L1 expression in mouse MC38 cells in presence of JQ-1 BRD4 inhibitor at 2 uM measured after 24 hrs incubation by Western blot analysis", "type": "functional, cell-based"}, "[14]": {"experiment": "AUC (0 to infinity) in Sprague-Dawley rat at 20 mg/kg, po measured upto 12 hrs by LC-MS/MS analysis", "type": "ADME, organism-based", "conditions": "in vivo"}, "[15]": {"system": "Mus musculus", "experiment": "Immunomodulatory effect in C57BL/6 mouse allografted mouse MC38 cells assessed as increase in tumor infiltrating lymphocytes by measuring increase in […] in mouse spleen in presence of NP19 PD-L1 inhibitor at 50 mg/kg, po treated 5 days after cell inoculation 19 th day by flow cytometry analysis (reference value: 13.6%)", "type": "functional", "conditions": "time 15 day"}, "[16]": {"experiment": "Volume of distribution at steady state in Sprague-Dawley rat at 20 mg/kg, po measured upto 12 hrs by LC-MS/MS analysis", "type": "ADME, organism-based", "conditions": "in vivo"}, "[17]": {"system": "Mus musculus", "experiment": "Immunomodulatory effect in C57BL/6 mouse allografted mouse MC38 cells assessed as increase in tumor infiltrating lymphocytes by measuring increase in CD4+ T helper cells in mouse lymph nodes in presence of NP19 PD-L1 inhibitor at 50 mg/kg, po treated 5 days after cell inoculation 19 th day by flow cytometry analysis (reference value: 15.5%)", "type": "functional", "conditions": "time 15 day"}, "[18]": {"system": "MC-38", "experiment": "Induction of mitochondrial membrane damage in mouse MC38 cells assessed as increase in JC-1 monomers by measuring green fluorescence at 4 uM measured after 48 hrs (reference value: 3.13%)", "type": "functional"}, "[19]": {"system": "MC-38", "experiment": "In vivo antitumor activity against mouse MC38 cells allografted in C57BL/6 mouse assessed as apoptosis in tumor at 50 mg/kg, po treated 5 days after cell inoculation 19 th day relative to control", "type": "functional, organism-based", "conditions": "time 15.0 day"}, "[20]": {"experiment": "Toxicity in C57BL/6 mouse allografted with mouse MC38 cells assessed as aspartate aminotransferase (AST) level in serum at 50 mg/kg, po treated 5 days after cell inoculation 19 th day", "type": "organism-based", "conditions": "in vivo, 360 h, time 15 day"}, "[21]": {"experiment": "MRT (0 to infinity) in Sprague-Dawley rat at 20 mg/kg, po measured upto 12 hrs by LC-MS/MS analysis", "type": "ADME, organism-based", "conditions": "in vivo"}, "[22]": {"experiment": "Oral bioavailability in Sprague-Dawley rat at 20 mg/kg measured upto 12 hrs by LC-MS/MS analysis", "type": "ADME, organism-based", "conditions": "in vivo"}, "[23]": {"system": "Mus musculus", "experiment": "Induction of acetylated H3 level in tumor in C57BL/6 mouse allografted with mouse MC38 cells at 50 mg/kg, po treated 5 days after cell inoculation 19 th day by immunofluorescence analysis", "type": "functional, organism-based", "conditions": "time 15.0 day"}, "[24]": {"system": "Mus musculus", "experiment": "Immunomodulatory effect in C57BL/6 mouse allografted with mouse MC38 cells assessed as increase in tumor infiltrating lymphocytes by measuring increase in CD3+ CD4+ cells at 50 mg/kg, po treated 5 days after cell inoculation 19 th day by flow cytometry analysis", "type": "functional, organism-based", "conditions": "time 15.0 day"}, "[25]": {"experiment": "Toxicity in C57BL/6 mouse allografted with mouse MC38 cells assessed as pathological changes in heart at 50 mg/kg, po treated 5 days after cell inoculation 19 th day by hematoxylin and eosin analysis", "type": "organism-based", "conditions": "in vivo, 360 h, time 15 day"}, "[26]": {"experiment": "Toxicity in C57BL/6 mouse allografted with mouse MC38 cells assessed as body weight loss in presence of NP19 PD-L1 inhibitor at 50 mg/kg, po treated 5 days after cell inoculation 19 th day", "type": "organism-based", "conditions": "in vivo, 360 h, time 15 day"}, "[27]": {"experiment": "Toxicity in C57BL/6 mouse allografted with mouse MC38 cells assessed as alkaline phosphatase (AKP) level in serum at 50 mg/kg, po treated 5 days after cell inoculation 19 th day", "type": "organism-based", "conditions": "in vivo, 360 h, time 15 day"}, "[28]": {"experiment": "Half life in Sprague-Dawley rat at 20 mg/kg, iv measured upto 12 hrs by LC-MS/MS analysis", "type": "ADME, organism-based", "conditions": "in vivo"}, "[29]": {"system": "Mus musculus", "experiment": "Induction of acetylated H3 level in tumor in C57BL/6 mouse allografted with mouse MC38 cells in presence of NP19 PD-L1 inhibitor at 50 mg/kg, po treated 5 days after cell inoculation 19 th day by immunofluorescence analysis", "type": "functional, organism-based", "conditions": "time 15.0 day"}, "[30]": {"experiment": "AUC (0 to t) in Sprague-Dawley rat at 20 mg/kg, po measured upto 12 hrs by LC-MS/MS analysis", "type": "ADME, organism-based", "conditions": "in vivo"}, "[31]": {"experiment": "MRT (0 to infinity) in Sprague-Dawley rat at 20 mg/kg, iv measured upto 12 hrs by LC-MS/MS analysis", "type": "ADME, organism-based", "conditions": "in vivo"}, "[32]": {"system": "Mus musculus", "experiment": "Induction of PD-L1 expression in tumor in C57BL/6 mouse allografted with mouse MC38 cells in presence of NP19 PD-L1 inhibitor at 50 mg/kg, po treated 5 days after cell inoculation 19 th day by immunofluorescence analysis", "type": "functional, organism-based", "conditions": "time 15.0 day"}, "[33]": {"system": "Mus musculus", "experiment": "Immunomodulatory effect in C57BL/6 mouse allografted mouse MC38 cells assessed as increase in tumor infiltrating lymphocytes by measuring increase in […] in mouse lymph nodes at 50 mg/kg, po treated 5 days after cell inoculation 19 th day by flow cytometry analysis (reference value: 20.3%)", "type": "functional", "conditions": "time 15 day"}}, "note": "Active and inactive are the calls of the source. The rule behind the calls is not given here."}
{"compound": "CCCNNC(=O)c1ccc(CNC(=O)c2cnc(-c3ccc4occc4c3)[nH]2)cc1", "values": [{"measurement": "Activity", "setting": "[1]", "result": 93.57, "unit": "%"}, {"measurement": "AUC(0-t) at 12 h", "setting": "[2]", "result": 1250, "unit": "ng·h/mL"}, {"measurement": "Activity", "setting": "[3]", "result": "Non-toxic"}, {"measurement": "CL/F", "setting": "[4]", "result": 259, "unit": "mL/min/kg"}, {"measurement": "Activity", "setting": "[5]", "result": "Active"}, {"measurement": "Activity", "setting": "[6]", "result": "Dose-dependent-effect"}, {"measurement": "CL", "setting": "[7]", "result": 27.8, "unit": "mL/min/kg"}, {"measurement": "Activity", "setting": "[8]", "result": "Non-toxic"}, {"measurement": "Activity", "setting": "[9]", "result": 91.43, "unit": "%"}, {"measurement": "LD50", "setting": "[10]", "result": "> 200", "unit": "mg/kg"}, {"measurement": "Activity", "setting": "[11]", "result": 1.72, "unit": "%"}, {"measurement": "MRT last at 12 h", "setting": "[12]", "result": 1.19, "unit": "h"}, {"measurement": "Activity", "setting": "[13]", "result": "Active"}, {"measurement": "AUC", "setting": "[14]", "result": 1429.8, "unit": "ng·h/mL"}, {"measurement": "Activity", "setting": "[15]", "result": 17.4, "unit": "%"}, {"measurement": "Vdss", "setting": "[16]", "result": 72.81, "unit": "L/kg"}, {"measurement": "Activity", "setting": "[17]", "result": 20, "unit": "%"}, {"measurement": "Activity", "setting": "[18]", "result": 27.53, "unit": "%"}, {"measurement": "Activity", "setting": "[19]", "result": "Active"}, {"measurement": "Activity", "setting": "[20]", "result": "Non-toxic"}, {"measurement": "MRT inf", "setting": "[21]", "result": 4.33, "unit": "h"}, {"measurement": "F", "setting": "[22]", "result": 11.5, "unit": "%"}, {"measurement": "Activity", "setting": "[23]", "result": "Active"}, {"measurement": "Activity", "setting": "[24]", "result": "Active"}, {"measurement": "Activity", "setting": "[25]", "result": "Non-toxic"}, {"measurement": "Activity", "setting": "[26]", "result": "Non-toxic"}, {"measurement": "Activity", "setting": "[27]", "result": "Non-toxic"}, {"measurement": "half-life", "setting": "[28]", "result": 1, "unit": "h"}, {"measurement": "Activity", "setting": "[29]", "result": "Active"}, {"measurement": "AUC(0-t) at 12 h", "setting": "[30]", "result": 1420, "unit": "ng·h/mL"}, {"measurement": "MRT inf", "setting": "[31]", "result": 1.2, "unit": "h"}, {"measurement": "Activity", "setting": "[32]", "result": "Active"}, {"measurement": "Activity", "setting": "[33]", "result": 29.6, "unit": "%"}]}
